Data taken from article PMC12926254, “Novel pyrazole carboxylate derivatives as lonazolac bioisosteres with selective COX-2 inhibition: design, synthesis and anti-inflammatory activity” (Molecular Diversity, 2025).

Key:
5-LOX = biological target: T1, 5-LOX (Homo sapiens, UniProt P09917); experiment: In vitro 5-LOX inhibition (5-Lipoxygenase Inhibitor Screening Kit K980-100, Biovision)
T1 sequence (P09917 1-674): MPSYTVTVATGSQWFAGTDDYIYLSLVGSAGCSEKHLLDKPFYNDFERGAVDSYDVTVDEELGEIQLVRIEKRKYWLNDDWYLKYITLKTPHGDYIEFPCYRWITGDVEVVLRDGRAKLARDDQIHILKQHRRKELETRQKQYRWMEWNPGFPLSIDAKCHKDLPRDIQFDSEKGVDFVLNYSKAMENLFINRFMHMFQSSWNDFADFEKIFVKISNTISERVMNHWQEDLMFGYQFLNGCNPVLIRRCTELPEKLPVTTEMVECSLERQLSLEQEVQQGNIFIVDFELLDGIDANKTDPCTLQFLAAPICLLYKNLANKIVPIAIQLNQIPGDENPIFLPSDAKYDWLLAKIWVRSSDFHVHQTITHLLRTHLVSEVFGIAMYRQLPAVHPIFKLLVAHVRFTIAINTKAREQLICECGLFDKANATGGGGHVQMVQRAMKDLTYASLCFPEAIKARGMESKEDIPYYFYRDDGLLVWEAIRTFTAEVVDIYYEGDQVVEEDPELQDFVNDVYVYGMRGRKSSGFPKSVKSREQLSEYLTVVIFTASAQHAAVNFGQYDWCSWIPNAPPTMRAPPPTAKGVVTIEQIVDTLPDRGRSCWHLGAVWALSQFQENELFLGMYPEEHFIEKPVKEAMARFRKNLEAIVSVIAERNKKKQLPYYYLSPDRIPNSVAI
Experimental: 5-LOX inhibitor Screening Protocol: dissolve the test compounds in DMSO. The solution was prepared at a concentration so that the final 100 µl reaction volume per well contains no more than 2 µl of the test chemical solution added to it. Each well was filled in the 96-well white plate with 2 µl of the test substance. […] To the “Enzyme Control” well, was filled with 40 µl of LOX Assay Buffer. In order to run the required number of assays, enough reagents were mixed. 40 µl of the following mix was prepared for each well: Buffer for Reaction MIx LOX Assay 34 µl LOX Probe 2 µl 5. LOX Enzyme 4 µl After thoroughly mixing, the Reaction Mix was transferred to the wells holding the Test Compounds, Enzyme Control, Inhibitor Control, and “Solvent Control.” substrate was added after 10 min of RT incubation of the plate. The wells shouldn’t contain any bubbles. […] To obtain the 5X solution, the 500 X solution with LOX Assay Buffer was diluted at a ratio of 1:100, depending on the number of reactions to be conducted. For each reaction, 20 µl of 5X solution will be required. How much substrate is needed based on the number of reactions. The final substrate functioning solution needs to be consumed that same day and stored on ice. The remaining stock solution should be immediately stored at -20 °C. 20 µl of 5X LOX Substrate should be added with a multichannel pipette to every well. […] To get the RFU for each sample, the RFU was subtracted at time t1 from the RFU at time t2, making sure that both t2 and t1 fall within the assay's linear range. The slope for each sample (including the “enzyme control”)was multiplied by the time Δt (t2 – t1) to find the ΔRFU. In the equations below, the values was substituted for “Solvent Control” for “Enzyme Control” if the two slopes disagree. %Inhibition=[slopeof(enzymecontrol)-slopeof(testcompound)]/slopeof(enzymecontrol)×100 %Relativeactivity=[slope(testcompound)]/slope(enzymecontrol)×100

[1] = test system: carrageenan-induced rat paw edema; experiment: Carrageenan-induced rat paw edema assay; type: in vivo
TNF-α = TNF-α production in LPS-activated RAW 264.7 macrophages (ELISA); details: Mus musculus, RAW264.7, read-out: TNF-α IC50
COX-2 = biological target: T2, COX-2 (Homo sapiens, UniProt P35354); experiment: In vitro COX-2 inhibition (COX-2 Inhibitor Screening Kit-K547, Biovision); type: biochemical; details: for IC50: mean of six values ± standard deviation
T2 construct: purchased Biovision K547
T2 sequence (P35354 18-604): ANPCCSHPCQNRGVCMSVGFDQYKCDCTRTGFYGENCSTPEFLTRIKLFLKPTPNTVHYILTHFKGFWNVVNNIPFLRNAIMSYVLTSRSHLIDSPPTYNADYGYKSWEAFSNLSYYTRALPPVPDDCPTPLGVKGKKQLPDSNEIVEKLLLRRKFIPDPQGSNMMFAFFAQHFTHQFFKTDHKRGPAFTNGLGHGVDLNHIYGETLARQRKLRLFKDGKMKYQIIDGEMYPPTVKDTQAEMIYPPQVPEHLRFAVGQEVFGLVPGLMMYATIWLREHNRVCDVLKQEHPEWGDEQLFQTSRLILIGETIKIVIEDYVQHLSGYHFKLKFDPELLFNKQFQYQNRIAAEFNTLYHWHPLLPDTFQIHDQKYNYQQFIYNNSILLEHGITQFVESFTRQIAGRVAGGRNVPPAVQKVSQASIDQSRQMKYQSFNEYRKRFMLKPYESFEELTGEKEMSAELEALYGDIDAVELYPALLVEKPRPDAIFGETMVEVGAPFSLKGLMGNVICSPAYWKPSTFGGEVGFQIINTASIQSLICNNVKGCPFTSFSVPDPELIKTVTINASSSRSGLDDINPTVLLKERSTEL
Experimental: (§1) The IC50 value of the tested compounds was determined.
COX-2 inhibitor Screening Protocol: Dissolve the tested compounds in DMSO. Use COX Assay Buffer to dilute the relevant test concentration by 10X before using. Place 10 µl of diluted test inhibitor or Assay Buffer in the specified wells instead of the sample screen (S) or enzyme control (EC; no inhibitor). […] Before using, combine 2 µl of COX Cofactor with 398 µl of COX Assay Buffer to dilute COX Cofactor 200 times. Blend thoroughly. Just before using, mix 5 µl of the provided arachidonic acid with 5 µl of NaOH to make the arachidonic acid solution. Combine quickly using a vortex. To dilute the arachidonic acid/NaOH solution 10 times, add 90 µl of water. There should be 80 µl of reaction mix in each well. Using a multi-channel pipette, add 10 µl of diluted arachidonic acid/NaOH solution into each well to initiate the reactions concurrently.

COX-1 = biological target: T3, COX-1 (Ovis aries, UniProt P05979); experiment: In vitro COX-1 inhibition (COX-1 Inhibitor Screening Kit-K548, Biovision); type: biochemical; details: mean of six values ± standard deviation
T3 construct: purchased Biovision K548
T3 sequence (P05979 25-600): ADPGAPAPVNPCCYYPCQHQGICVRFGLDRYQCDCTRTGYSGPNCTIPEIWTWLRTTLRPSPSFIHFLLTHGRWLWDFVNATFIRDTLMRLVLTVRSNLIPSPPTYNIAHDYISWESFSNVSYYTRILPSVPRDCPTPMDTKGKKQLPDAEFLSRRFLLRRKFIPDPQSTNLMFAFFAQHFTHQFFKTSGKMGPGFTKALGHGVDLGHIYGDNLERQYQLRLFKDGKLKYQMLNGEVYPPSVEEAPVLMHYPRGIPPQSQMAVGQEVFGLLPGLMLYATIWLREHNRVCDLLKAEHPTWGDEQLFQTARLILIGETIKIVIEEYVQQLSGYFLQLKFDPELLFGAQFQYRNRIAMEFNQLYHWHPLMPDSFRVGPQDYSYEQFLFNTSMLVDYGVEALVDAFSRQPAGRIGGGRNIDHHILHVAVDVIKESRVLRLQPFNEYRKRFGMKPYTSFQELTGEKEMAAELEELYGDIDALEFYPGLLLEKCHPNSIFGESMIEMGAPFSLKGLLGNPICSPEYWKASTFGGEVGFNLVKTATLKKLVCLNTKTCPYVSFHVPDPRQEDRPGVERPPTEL
Experimental: as §1
COX-1 inhibitor Screening Protocol: Dissolve the tested compounds in DMSO. Use COX assay buffer to dilute the relevant test concentration by 10X before using. Place 10 µl of diluted test inhibitor or assay buffer in the specified wells instead of the sample screen (S) or enzyme control (EC; no inhibitor). To one of the wells, add 2 µl of SC560 and 8 µl of COX Assay Buffer as an inhibitor control (IC). Before using, combine 2 µl of COX Cofactor with 398 µl of COX Assay Buffer to dilute COX cofactor 200 times. Blend thoroughly. Just before using, mix 5 µl of the provided arachidonic acid with 5 µl of NaOH to make the arachidonic acid solution. Combine quickly using a vortex. To dilute the arachidonic acid/NaOH solution 10 times, add 90 µl of water. There should be 80 µl of reaction mix in each well. Using a multi-channel pipette, add 10 µl of diluted arachidonic acid/NaOH solution to each well to initiate all the reactions at once.

Row | Structure (SMILES) | IC50 (5-LOX) [nM] | % inhibition (edema) ([1]; 10 mg/kg) [%] | % inhibition (edema) ([1]; 25 mg/kg) [%] | IC50 (TNF-α) [nM] | COX-2 S.I. (COX-2; COX-1 IC50/COX-2 IC50) | IC50 (COX-2) [nM] | IC50 (COX-1) [µM]
1 | CCOC(=O)COc1ccc(C2=NN(c3ccc(S(C)(=O)=O)cc3)C(c3ccc(OC)cc3)C2)cc1 (stereo not shown) [Compound 15c, Ethyl 2-(4-(5-(4-methoxyphenyl)-1-(4-(methylsulfonyl)phenyl)-4,5-dihydro-1H-pyrazol-3-yl)phenoxy)acetate] | 453 ± 18 | 22.32 | 31.51 | 770 ± 25 | 28.56 | 397 ± 13 | 11.3 ± 0.45
2 | CCOC(=O)COc1ccc(C2=NN(c3ccc(S(C)(=O)=O)cc3)C(c3cc(OC)c(OC)c(OC)c3)C2)cc1 (stereo not shown) [Compound 15d, Ethyl 2-(4-(1-(4-(methylsulfonyl)phenyl)-5-(3,4,5-trimethoxyphenyl)-4,5-dihydro-1H-pyrazol-3-yl)phenoxy)acetate] | 241 ± 9 | 29.52 | 36.61 | 1200 ± 60 | – | 221 ± 7 | 15.5 ± 0.61
3 | CCOC(=O)COc1ccc(C2=NN(c3ccc(S(C)(=O)=O)cc3)C(c3ccc(Br)cc3)C2)cc1 (stereo not shown) [Compound 15 h, Ethyl 2-(4-(5-(4-bromophenyl)-1-(4-(methylsulfonyl)phenyl)-4,5-dihydro-1H-pyrazol-3-yl)phenoxy)acetate] | 813 ± 32 | 19.49 | 37.98 | 1040 ± 42 | – | 103 ± 3 | 6.88 ± 0.25
